Patent publication US9708314B2, “Heterocyclic amide compound” (NISSAN CHEMICAL INDUSTRIES, LTD., priority 2013, dated 2017)

Assays:
Assay type in all cases: in vivo
[1] = test system: directly sowed Oryza sativa; assay: Test Example 3: effect on crop by application to foliage (Wagner pot, water depth 0.1-0.5 cm); conditions: Nineteenth Table; application to foliage; application herbicide amount 320 g/ha
Method in brief: (§1)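 Post-emergence foliar application at a stated g/ha rate to plants grown 14 days from seed in alluvial soil, greenhouse 25–30 °C. Visual score after 3 weeks: 0 (≤5% effect) through 5 (≥90%).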

Scirpus juncoides [2] = assay: Test Example 1: herbicidal activity, application before weed generation in submerged conditions; conditions: Application herbicide amount 320 g/ha; Seventeenth Table
Method in brief: (§2)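 Pre-emergence water-surface application under 4 cm flooding, same day as sowing, with rice transplanted at 2.5 leaf stage. Dose given as g/ha. Plants grown at 25° C. to 30° C. and rated three weeks later on a 0 (≤5%) to 5 (≥90%) herbicidal-ratio scale.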

[3] = test system: Echinochloa oryzacola Vasing.; assay: as above; conditions: Application herbicide amount 320 g/ha; Seventeenth Table
Method in brief: as §2

Monochoria vaginalis [4] = assay: as above; conditions: Application herbicide amount 320 g/ha; Seventeenth Table
Method in brief: as §2

Scirpus juncoides [5] = assay: Test Example 2: herbicidal activity, application during weed generation in submerged conditions; conditions: Eighteenth Table; application herbicide amount 320 g/ha
Method in brief: (§3)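 Scored three weeks post-application on a 0–5 scale (5: ≥90% herbicidal ratio, almost withered; 0: ≤5%). Plants raised from mixed-sown seed in submerged alluvial soil (4 cm water), 25–30 °C greenhouse; water-diluted emulsion applied onto water surface at one- to two-leaf stage, dose in g/ha.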

[6] = test system: Echinochloa oryzacola Vasing.; assay: as above; conditions: Eighteenth Table; application herbicide amount 320 g/ha
Method in brief: as §3

Cyperus difformis = assay: Test Example 3: herbicidal effect by application to foliage (Wagner pot, water depth 0.1-0.5 cm); conditions: Nineteenth Table; application to foliage; application herbicide amount 320 g/ha
Method in brief: as §1

Leptochloa chinensis = assay: as above; conditions: Nineteenth Table; application to foliage; application herbicide amount 320 g/ha
Method in brief: as §1

[7] = test system: Echinochloa crus-galli var. crus-galli; assay: as above; conditions: Nineteenth Table; application to foliage; application herbicide amount 320 g/ha
Method in brief: as §1

Monochoria vaginalis [8] = assay: Test Example 2: herbicidal activity, application during weed generation in submerged conditions; conditions: Eighteenth Table; application herbicide amount 320 g/ha
Method in brief: as §3

Cc1nnc(NC(=O)c2ccc(C(F)(F)F)n3c(SCC4CC4)nnc23)o1 [1-115]
b (effect on crop grade) [1]: 0 (Herbicidal ratio of 5% or less (almost no effect))
B: Scirpus juncoides (herbicidal effect grade) (Scirpus juncoides [2]): 4 (Herbicidal ratio of 70% or more and less than 90%)
A: Echinochloa oryzicola Vasing. (herbicidal effect grade) [3]: 5 (Herbicidal ratio of 90% or more (almost completely withered))
C: Monochoria vaginalis (herbicidal effect grade) (Monochoria vaginalis [4]): 3 (Herbicidal ratio of 40% or more and less than 70%)
B (Scirpus juncoides) herbicidal ratio grade (Scirpus juncoides [5]): 3 (Herbicidal ratio of 40% or more and less than 70%)
A (Echinochloa oryzicola Vasing.) herbicidal ratio grade [6]: 3 (Herbicidal ratio of 40% or more and less than 70%)
E (herbicidal effect grade) (Cyperus difformis): 4 (Herbicidal ratio of 70% or more and less than 90%)
D (herbicidal effect grade) (Leptochloa chinensis): 4 (Herbicidal ratio of 70% or more and less than 90%)
H (herbicidal effect grade) [7]: 5 (Herbicidal ratio of 90% or more (almost completely withered))

CSCCNc1nnc2c(C(=O)Nc3nnc(C)o3)ccc(C(F)(F)F)n12 [1-130]
b (effect on crop grade) [1]: 2 (Herbicidal ratio of 20% or more and less than 40%)
B: Scirpus juncoides (herbicidal effect grade) (Scirpus juncoides [2]): 0 (Herbicidal ratio of 5% or less (almost no effect))
A: Echinochloa oryzicola Vasing. (herbicidal effect grade) [3]: 1 (Herbicidal ratio of 5% or more and less than 20%)
C: Monochoria vaginalis (herbicidal effect grade) (Monochoria vaginalis [4]): 0 (Herbicidal ratio of 5% or less (almost no effect))
E (herbicidal effect grade) (Cyperus difformis): 2 (Herbicidal ratio of 20% or more and less than 40%)
D (herbicidal effect grade) (Leptochloa chinensis): 4 (Herbicidal ratio of 70% or more and less than 90%)
H (herbicidal effect grade) [7]: 5 (Herbicidal ratio of 90% or more (almost completely withered))

CC(C)c1nnc2c(C(=O)Nc3nnc(C[S+](C)[O-])o3)ccc(C(F)(F)F)n12 (stereo not drawn) [1-143]
b (effect on crop grade) [1]: 0 (Herbicidal ratio of 5% or less (almost no effect))
B: Scirpus juncoides (herbicidal effect grade) (Scirpus juncoides [2]): 0 (Herbicidal ratio of 5% or less (almost no effect))
A: Echinochloa oryzicola Vasing. (herbicidal effect grade) [3]: 0 (Herbicidal ratio of 5% or less (almost no effect))
C: Monochoria vaginalis (herbicidal effect grade) (Monochoria vaginalis [4]): 2 (Herbicidal ratio of 20% or more and less than 40%)
E (herbicidal effect grade) (Cyperus difformis): 4 (Herbicidal ratio of 70% or more and less than 90%)
D (herbicidal effect grade) (Leptochloa chinensis): 2 (Herbicidal ratio of 20% or more and less than 40%)
H (herbicidal effect grade) [7]: 4 (Herbicidal ratio of 70% or more and less than 90%)

O=C(Nc1nnco1)c1ccc(C(F)(F)F)n2c(C3CC3)nnc12 [1-144]
B: Scirpus juncoides (herbicidal effect grade) (Scirpus juncoides [2]): 3 (Herbicidal ratio of 40% or more and less than 70%)
A: Echinochloa oryzicola Vasing. (herbicidal effect grade) [3]: 5 (Herbicidal ratio of 90% or more (almost completely withered))
C: Monochoria vaginalis (herbicidal effect grade) (Monochoria vaginalis [4]): 3 (Herbicidal ratio of 40% or more and less than 70%)
B (Scirpus juncoides) herbicidal ratio grade (Scirpus juncoides [5]): 4 (Herbicidal ratio of 70% or more and less than 90%)
A (Echinochloa oryzicola Vasing.) herbicidal ratio grade [6]: 4 (Herbicidal ratio of 70% or more and less than 90%)
C (Monochoria vaginalis) herbicidal ratio grade (Monochoria vaginalis [8]): 3 (Herbicidal ratio of 40% or more and less than 70%)
E (herbicidal effect grade) (Cyperus difformis): 2 (Herbicidal ratio of 20% or more and less than 40%)
D (herbicidal effect grade) (Leptochloa chinensis): 4 (Herbicidal ratio of 70% or more and less than 90%)
H (herbicidal effect grade) [7]: 5 (Herbicidal ratio of 90% or more (almost completely withered))

CCC(CC)c1nnc2c(C(=O)Nc3nnco3)ccc(C(F)(F)F)n12 [1-145]
B: Scirpus juncoides (herbicidal effect grade) (Scirpus juncoides [2]): 5 (Herbicidal ratio of 90% or more (almost completely withered))
A: Echinochloa oryzicola Vasing. (herbicidal effect grade) [3]: 5 (Herbicidal ratio of 90% or more (almost completely withered))
C: Monochoria vaginalis (herbicidal effect grade) (Monochoria vaginalis [4]): 5 (Herbicidal ratio of 90% or more (almost completely withered))
B (Scirpus juncoides) herbicidal ratio grade (Scirpus juncoides [5]): 4 (Herbicidal ratio of 70% or more and less than 90%)
A (Echinochloa oryzicola Vasing.) herbicidal ratio grade [6]: 4 (Herbicidal ratio of 70% or more and less than 90%)
C (Monochoria vaginalis) herbicidal ratio grade (Monochoria vaginalis [8]): 4 (Herbicidal ratio of 70% or more and less than 90%)
E (herbicidal effect grade) (Cyperus difformis): 5 (Herbicidal ratio of 90% or more (almost completely withered))
D (herbicidal effect grade) (Leptochloa chinensis): 5 (Herbicidal ratio of 90% or more (almost completely withered))
H (herbicidal effect grade) [7]: 5 (Herbicidal ratio of 90% or more (almost completely withered))

CSCc1nnc2c(C(=O)Nc3nnco3)ccc(C(F)(F)F)n12 [1-146]
B: Scirpus juncoides (herbicidal effect grade) (Scirpus juncoides [2]): 5 (Herbicidal ratio of 90% or more (almost completely withered))
A: Echinochloa oryzicola Vasing. (herbicidal effect grade) [3]: 5 (Herbicidal ratio of 90% or more (almost completely withered))
C: Monochoria vaginalis (herbicidal effect grade) (Monochoria vaginalis [4]): 5 (Herbicidal ratio of 90% or more (almost completely withered))
B (Scirpus juncoides) herbicidal ratio grade (Scirpus juncoides [5]): 3 (Herbicidal ratio of 40% or more and less than 70%)
A (Echinochloa oryzicola Vasing.) herbicidal ratio grade [6]: 3 (Herbicidal ratio of 40% or more and less than 70%)
C (Monochoria vaginalis) herbicidal ratio grade (Monochoria vaginalis [8]): 3 (Herbicidal ratio of 40% or more and less than 70%)
E (herbicidal effect grade) (Cyperus difformis): 4 (Herbicidal ratio of 70% or more and less than 90%)
D (herbicidal effect grade) (Leptochloa chinensis): 5 (Herbicidal ratio of 90% or more (almost completely withered))
H (herbicidal effect grade) [7]: 5 (Herbicidal ratio of 90% or more (almost completely withered))

O=C(Nc1nnco1)c1ccc(C(F)(F)F)n2c(-c3ccc(F)cc3)nnc12 [1-147]
B: Scirpus juncoides (herbicidal effect grade) (Scirpus juncoides [2]): 5 (Herbicidal ratio of 90% or more (almost completely withered))
A: Echinochloa oryzicola Vasing. (herbicidal effect grade) [3]: 5 (Herbicidal ratio of 90% or more (almost completely withered))
C: Monochoria vaginalis (herbicidal effect grade) (Monochoria vaginalis [4]): 5 (Herbicidal ratio of 90% or more (almost completely withered))
B (Scirpus juncoides) herbicidal ratio grade (Scirpus juncoides [5]): 2 (Herbicidal ratio of 20% or more and less than 40%)
A (Echinochloa oryzicola Vasing.) herbicidal ratio grade [6]: 4 (Herbicidal ratio of 70% or more and less than 90%)
C (Monochoria vaginalis) herbicidal ratio grade (Monochoria vaginalis [8]): 3 (Herbicidal ratio of 40% or more and less than 70%)
E (herbicidal effect grade) (Cyperus difformis): 3 (Herbicidal ratio of 40% or more and less than 70%)
D (herbicidal effect grade) (Leptochloa chinensis): 5 (Herbicidal ratio of 90% or more (almost completely withered))
H (herbicidal effect grade) [7]: 5 (Herbicidal ratio of 90% or more (almost completely withered))

COc1cc(OC)cc(-c2nnc3c(C(=O)Nc4nnco4)ccc(C(F)(F)F)n23)c1 [1-148]
B: Scirpus juncoides (herbicidal effect grade) (Scirpus juncoides [2]): 5 (Herbicidal ratio of 90% or more (almost completely withered))
A: Echinochloa oryzicola Vasing. (herbicidal effect grade) [3]: 5 (Herbicidal ratio of 90% or more (almost completely withered))
C: Monochoria vaginalis (herbicidal effect grade) (Monochoria vaginalis [4]): 5 (Herbicidal ratio of 90% or more (almost completely withered))
B (Scirpus juncoides) herbicidal ratio grade (Scirpus juncoides [5]): 5 (Herbicidal ratio of 90% or more (almost completely withered))
A (Echinochloa oryzicola Vasing.) herbicidal ratio grade [6]: 5 (Herbicidal ratio of 90% or more (almost completely withered))
C (Monochoria vaginalis) herbicidal ratio grade (Monochoria vaginalis [8]): 4 (Herbicidal ratio of 70% or more and less than 90%)
E (herbicidal effect grade) (Cyperus difformis): 5 (Herbicidal ratio of 90% or more (almost completely withered))
D (herbicidal effect grade) (Leptochloa chinensis): 5 (Herbicidal ratio of 90% or more (almost completely withered))
H (herbicidal effect grade) [7]: 5 (Herbicidal ratio of 90% or more (almost completely withered))

COc1ccc(-c2nnc3c(C(=O)Nc4nnco4)ccc(C(F)(F)F)n23)cc1 [1-149]
B: Scirpus juncoides (herbicidal effect grade) (Scirpus juncoides [2]): 4 (Herbicidal ratio of 70% or more and less than 90%)
A: Echinochloa oryzicola Vasing. (herbicidal effect grade) [3]: 5 (Herbicidal ratio of 90% or more (almost completely withered))
C: Monochoria vaginalis (herbicidal effect grade) (Monochoria vaginalis [4]): 3 (Herbicidal ratio of 40% or more and less than 70%)
B (Scirpus juncoides) herbicidal ratio grade (Scirpus juncoides [5]): 3 (Herbicidal ratio of 40% or more and less than 70%)
A (Echinochloa oryzicola Vasing.) herbicidal ratio grade [6]: 3 (Herbicidal ratio of 40% or more and less than 70%)
C (Monochoria vaginalis) herbicidal ratio grade (Monochoria vaginalis [8]): 2 (Herbicidal ratio of 20% or more and less than 40%)
E (herbicidal effect grade) (Cyperus difformis): 5 (Herbicidal ratio of 90% or more (almost completely withered))
D (herbicidal effect grade) (Leptochloa chinensis): 5 (Herbicidal ratio of 90% or more (almost completely withered))
H (herbicidal effect grade) [7]: 5 (Herbicidal ratio of 90% or more (almost completely withered))

COc1ccc(N(C)c2nnc3c(C(=O)Nc4nnc(C)o4)ccc(C(F)(F)F)n23)cc1 [1-165]
b (effect on crop grade) [1]: 0 (Herbicidal ratio of 5% or less (almost no effect))
B: Scirpus juncoides (herbicidal effect grade) (Scirpus juncoides [2]): 3 (Herbicidal ratio of 40% or more and less than 70%)
A: Echinochloa oryzicola Vasing. (herbicidal effect grade) [3]: 4 (Herbicidal ratio of 70% or more and less than 90%)
C: Monochoria vaginalis (herbicidal effect grade) (Monochoria vaginalis [4]): 4 (Herbicidal ratio of 70% or more and less than 90%)
B (Scirpus juncoides) herbicidal ratio grade (Scirpus juncoides [5]): 2 (Herbicidal ratio of 20% or more and less than 40%)
A (Echinochloa oryzicola Vasing.) herbicidal ratio grade [6]: 2 (Herbicidal ratio of 20% or more and less than 40%)
D (herbicidal effect grade) (Leptochloa chinensis): 4 (Herbicidal ratio of 70% or more and less than 90%)
H (herbicidal effect grade) [7]: 5 (Herbicidal ratio of 90% or more (almost completely withered))

COc1ccc(CN(C)c2nnc3c(C(=O)Nc4nnc(C)o4)ccc(C(F)(F)F)n23)cc1 [1-167]
B: Scirpus juncoides (herbicidal effect grade) (Scirpus juncoides [2]): 2 (Herbicidal ratio of 20% or more and less than 40%)
A: Echinochloa oryzicola Vasing. (herbicidal effect grade) [3]: 4 (Herbicidal ratio of 70% or more and less than 90%)
C: Monochoria vaginalis (herbicidal effect grade) (Monochoria vaginalis [4]): 0 (Herbicidal ratio of 5% or less (almost no effect))
D (herbicidal effect grade) (Leptochloa chinensis): 2 (Herbicidal ratio of 20% or more and less than 40%)
H (herbicidal effect grade) [7]: 1 (Herbicidal ratio of 5% or more and less than 20%)
